For 21 molecules, inhibition results are on record in patent US8030336B2, “Nicotinamide-based kinase inhibitors” (YM Biosciences Australia Pty Ltd, priority 2002, dated 2011).

Some results are limits rather than exact numbers.

Holding throughout (format): biochemical
One test addresses fes (Homo sapiens, UniProt P07332). Put plainly: fes kinase assay (ELISA or Alphascreen). The note with it: read-out: fes inhibition of enzyme activity. As for the experimental part: (§1) Kinase assays were performed in a 96 well capture-based ELISA assay or in 384 well Optiplates (Packard) using an Alphascreen Protein Tyrosine Kinase kit. In either case using approximately 1.5 μg of affinity purified PTK domain in the presence of 50 mM HEPES, pH 7.5, 10 mM MgCl2, 150 mM NaCl and 10 μM-1 mM ATP. The biotinylated substrate biotin-EGPWLEEEEEAYGWMDF-NH2 (SEQ ID NO:9) (final concentration 5 μM) was used as substrate. In the ELISA assay tyrosine phosphorylation was quantitated following transfer to an avidin coated ELISA plate using peroxidase-linked anti-phosphotyrosine antibody PY20. In the Alphascreen assay, Alphascreen phosphotyrosine acceptor beads followed by streptavidin donor beads were added under subdued light. The ELISA plates were read on a BMG Fluorostar, the Alphascreen plates were read on a Packard Fusion Alpha. Inhibitors were added to the assays fifteen minutes prior to the addition of ATP. Inhibitors were added in aqueous […] concentrations never exceeding 1%.
On the technique in general: In an ELISA, binding on a coated surface is turned into a signal by an enzyme label.

The target of the next test is T1, Zap70 (Homo sapiens, UniProt P43403).
T1 sequence (P43403 338-600 limits assumed): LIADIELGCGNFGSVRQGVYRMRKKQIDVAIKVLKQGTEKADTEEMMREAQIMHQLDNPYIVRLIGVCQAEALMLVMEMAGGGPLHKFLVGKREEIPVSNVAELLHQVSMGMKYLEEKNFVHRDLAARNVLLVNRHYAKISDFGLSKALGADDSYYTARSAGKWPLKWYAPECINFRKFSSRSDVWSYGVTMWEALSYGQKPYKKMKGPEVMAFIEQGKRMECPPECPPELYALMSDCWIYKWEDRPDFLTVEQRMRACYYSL
Put plainly: Zap70 kinase assay (ELISA or Alphascreen). The note with it: read-out: Zap70 inhibition of enzyme activity. As for the experimental part: as §1

For another test, the target named is T2, abl (Homo sapiens, UniProt P00519).
T2 sequence (P00519 242-493 limits assumed): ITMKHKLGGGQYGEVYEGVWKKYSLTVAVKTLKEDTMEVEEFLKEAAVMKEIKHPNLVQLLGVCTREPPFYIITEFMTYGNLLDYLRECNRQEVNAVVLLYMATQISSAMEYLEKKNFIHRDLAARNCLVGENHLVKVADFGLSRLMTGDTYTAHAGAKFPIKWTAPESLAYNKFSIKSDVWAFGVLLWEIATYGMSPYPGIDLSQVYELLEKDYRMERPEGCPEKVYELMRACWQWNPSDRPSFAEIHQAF
Description: abl kinase assay (ELISA or Alphascreen). Conditions: read-out: abl inhibition of enzyme activity. As for the experimental part:
as §1

The target of a further test is hck (Homo sapiens, UniProt P08631). Description: hck kinase assay (ELISA or Alphascreen). Conditions: read-out: hck inhibition of enzyme activity. As for the experimental part:
as §1

A further test has as its target T3, human JAK2 (Homo sapiens, UniProt O60674).
T3 construct: The kinase domain of human JAK2 was amplified from U937mRNA; His tag (from the pFastBac HTc vector) (N); made in house; host or cells: baculovirus; Sf9 for virus, High Five insect cells for production
Put plainly: JAK2 kinase assay (ELISA or Alphascreen). Conditions: read-out: Jak2 inhibition of enzyme activity.
Source text: The kinase domain of human JAK2 was amplified from U937mRNA using the polymerase chain reaction with the following primers: […]
JAK2 PCR products were doped into the pFastBac HTc expression vector (Gibco) via the Sal I and Not I sites. The JAK2 plasmid was than transformed into competent DH10Bac cells (Gibco), and the recombinant baculovirus produced prepared for transfection into Sf9 insect cells.
(§2) Baculovirus preparations from each of the JAK family members were infected into five liters of High Five cells (Invitrogen) grown in High Five serum free medium (Invitrogen) to a cell density of approximately 1-2×10^6 cells/ml. Cells are infected with virus at a MOI of 0.8-3.0. Cells were harvested and lysed. JAK kinase domains were purified by affinity chromatography on a Probond (Invitrogen) nickel chelate affinity column.
as §1

Another test concerns the target T4, human JAK3 (Homo sapiens, UniProt P52333).
T4 construct: The kinase domain of human JAK3 was amplified from U937mRNA; His tag (from the pFastBac HTb vector) (N); made in house; host or cells: baculovirus; Sf9 for virus, High Five insect cells for production
Description: JAK3 kinase assay (ELISA or Alphascreen). Conditions: read-out: Jak3 inhibition of enzyme activity.
Source text: The kinase domain of human JAK3 was amplified from U937mRNA using the polymerase chain reaction with the following primers: […]
JAK3 PCR products were cloned into the pFastBac HTb expression vector (Gibco) via the Xho I and Kpn I sites. The JAK3 plasmid was then transformed into competent DH10Bac cells (Gibco), and the recombinant baculovirus produced prepared for transfection into Sf9 insect cells.
as §2, §1

In another test the target is T5, fms (Homo sapiens, UniProt P07333).
T5 sequence (P07333 582-910 limits assumed): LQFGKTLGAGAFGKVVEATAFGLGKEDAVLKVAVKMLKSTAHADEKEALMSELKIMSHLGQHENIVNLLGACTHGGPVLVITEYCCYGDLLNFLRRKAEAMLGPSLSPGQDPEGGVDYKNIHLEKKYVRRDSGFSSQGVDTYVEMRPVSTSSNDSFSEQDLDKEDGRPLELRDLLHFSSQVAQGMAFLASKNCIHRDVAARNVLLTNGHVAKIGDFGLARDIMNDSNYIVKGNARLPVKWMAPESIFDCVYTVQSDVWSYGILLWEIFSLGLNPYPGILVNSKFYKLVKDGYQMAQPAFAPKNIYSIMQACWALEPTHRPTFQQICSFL
Description: fms kinase assay (ELISA or Alphascreen). Conditions: read-out: fms inhibition of enzyme activity. As for the experimental part:
as §1

Chain of hck (P08631 262-515 limits assumed, species assumed): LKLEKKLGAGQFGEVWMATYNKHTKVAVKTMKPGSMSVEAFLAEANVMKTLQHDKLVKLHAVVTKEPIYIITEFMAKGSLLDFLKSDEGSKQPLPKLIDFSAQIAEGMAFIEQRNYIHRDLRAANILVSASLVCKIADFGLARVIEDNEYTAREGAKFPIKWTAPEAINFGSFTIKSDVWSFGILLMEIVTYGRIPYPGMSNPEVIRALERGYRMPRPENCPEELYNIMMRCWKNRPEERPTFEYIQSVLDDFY
T4 sequence (P52333 822-1111 limits assumed): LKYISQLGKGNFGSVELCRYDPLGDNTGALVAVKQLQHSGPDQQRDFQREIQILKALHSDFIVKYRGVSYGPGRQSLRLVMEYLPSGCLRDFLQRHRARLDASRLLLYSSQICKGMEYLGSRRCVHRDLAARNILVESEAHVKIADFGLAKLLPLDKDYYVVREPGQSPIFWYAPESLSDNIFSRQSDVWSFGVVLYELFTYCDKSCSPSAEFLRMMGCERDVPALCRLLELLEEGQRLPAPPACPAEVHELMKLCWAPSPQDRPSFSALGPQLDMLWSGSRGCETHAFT
Chain of fes (P07332 561-822 limits assumed, species assumed): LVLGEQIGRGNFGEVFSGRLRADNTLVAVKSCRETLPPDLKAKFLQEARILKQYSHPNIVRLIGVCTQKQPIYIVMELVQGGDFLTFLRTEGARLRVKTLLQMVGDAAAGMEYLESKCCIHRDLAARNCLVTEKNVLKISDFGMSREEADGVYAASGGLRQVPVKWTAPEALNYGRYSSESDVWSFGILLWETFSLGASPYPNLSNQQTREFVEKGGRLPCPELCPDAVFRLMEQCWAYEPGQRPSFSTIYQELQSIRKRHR
T3 sequence (O60674 849-1124 limits assumed): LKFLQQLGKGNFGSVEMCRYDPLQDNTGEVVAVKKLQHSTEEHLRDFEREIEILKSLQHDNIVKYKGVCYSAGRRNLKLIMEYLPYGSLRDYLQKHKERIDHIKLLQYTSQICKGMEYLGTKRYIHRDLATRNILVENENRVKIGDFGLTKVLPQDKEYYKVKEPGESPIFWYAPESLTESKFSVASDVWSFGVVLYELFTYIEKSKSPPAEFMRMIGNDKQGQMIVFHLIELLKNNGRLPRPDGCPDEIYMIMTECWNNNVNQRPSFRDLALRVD

The inhibition is the relative decrease from the control value, in per cent. Regarding `C[C@@H](NC(=O)c1cncc(-c2ccc(O)cc2)c1)c1ccccc1`, the inhibition at 10 µM on fes, on Zap70, at abl, at hck and at human JAK2 was less than 50% each time.

Take `O=C(NCc1cccc(F)c1)c1cncc(-c2ccc(O)cc2)c1`: the inhibition at 10 µM on fes, at Zap70, at abl, on hck and at human JAK3 was less than 50% each time.

`O=C(NCCc1ccccc1)c1cncc(-c2ccc(O)cc2)c1`: the inhibition at 10 µM on fes, at Zap70, at hck, at human JAK3, on fms and at human JAK2 was less than 50% each time.

Regarding `CN(Cc1ccccc1)C(=O)c1cncc(-c2ccc(O)cc2)c1`, the inhibition at 10 µM on fes, at Zap70, on hck, at human JAK3, at fms and at human JAK2 was less than 50% throughout.

Turning to `COc1ccc(NC(=O)c2cncc(-c3ccc(O)cc3)c2)c(OC)c1`, the inhibition at 10 µM on Zap70, on abl, on hck, on human JAK3 and at human JAK2 was less than 50% throughout.

As for `Cc1ccccc1NC(=O)c1cncc(-c2ccc(O)cc2)c1`, the inhibition at 10 µM was less than 50% at fes; less than 50% on Zap70; not below 50% on hck; less than 50% on human JAK3; not below 50% at fms; less than 50% at human JAK2.

Consider `Cc1cc(-c2cncc(C(=O)N[C@H](C)c3ccccc3)c2)cc(C)c1O`, for which the inhibition at 10 µM at fes, at Zap70, at abl, at hck and at human JAK2 was less than 50% in each case.

Turning to `COc1cc(CNC(=O)c2cncc(-c3cc(C)c(O)c(C)c3)c2)cc(OC)c1`, the inhibition at 10 µM was less than 50% on fes; less than 50% at Zap70; less than 50% at hck; less than 50% at human JAK3; not below 50% on fms; less than 50% at human JAK2.

As for `Cc1cc(-c2cncc(C(=O)NC(C)CCc3ccccc3)c2)cc(C)c1O` (centres unmarked), the inhibition at 10 µM on fes, on Zap70, on hck, on human JAK3, at fms and at human JAK2 was less than 50% each time.

As for `COc1cc(-c2cncc(C(=O)NC(C)C)c2)c(Cl)c(OC)c1OC`, the inhibition at 10 µM at fes, on Zap70, on hck, at human JAK3, at fms and on human JAK2 was less than 50% each time.

For `COc1cc(-c2cncc(C(=O)NCCc3ccccc3)c2)c(Cl)c(OC)c1OC`, the inhibition at 10 µM at fes, at Zap70, at hck, on human JAK3, at fms and on human JAK2 was less than 50% throughout.

On to `COc1cc(-c2cncc(C(=O)Nc3ccc(F)cc3C)c2)c(Cl)c(OC)c1OC`, for which the inhibition at 10 µM on fes was less than 50%; on Zap70, less than 50%; at hck, not below 50%; on human JAK3 it was less than 50%; on fms it was not below 50%; at human JAK2, less than 50%.

Consider `O=C(NCCO)c1cncc(-c2ccc3c(c2)OCO3)c1`, for which the inhibition at 10 µM on Zap70, at abl, at hck, on human JAK3 and at human JAK2 was less than 50% in each case.

As to `COc1cc(CNC(=O)c2cncc(-c3ccc4c(c3)OCO4)c2)cc(OC)c1`, the inhibition at 10 µM on fes, at Zap70, on abl, on hck and at human JAK2 was less than 50% in each case.

Turning to `O=C(NCc1cccc(F)c1)c1cncc(-c2ccc3c(c2)OCO3)c1`, the inhibition at 10 µM at fes, on Zap70, at abl, on hck, on human JAK3 and on human JAK2 was less than 50% each time.

In the case of `O=C(NCCc1ccccc1)c1cncc(-c2ccc3c(c2)OCO3)c1`, the inhibition at 10 µM at fes, on Zap70, at abl, on hck, on human JAK3 and on human JAK2 was less than 50% throughout.

Regarding `Cc1ccccc1NC(=O)c1cncc(-c2ccc3c(c2)OCO3)c1`, the inhibition at 10 µM on fes was less than 50%; at Zap70 it was less than 50%; on abl, less than 50%; at hck it was not below 50%; on human JAK3, less than 50%; at human JAK2 it was less than 50%.

Regarding `O=C(NCc1ccc(N2CCOCC2)cc1)c1cncc(-c2cccs2)c1`, the inhibition at 10 µM on fes, at Zap70, at abl, on hck and on human JAK2 was less than 50% in each case.

Turning to `C[C@@H](NC(=O)c1cncc(-c2cccs2)c1)c1ccccc1`, the inhibition at 10 µM at fes, at Zap70, at abl, on hck, at human JAK3 and on human JAK2 was less than 50% throughout.

`O=C(NCCc1ccccc1)c1cncc(-c2cccs2)c1`: the inhibition at 10 µM at fes, at Zap70, at abl, on hck, at human JAK3 and on human JAK2 was less than 50% each time.

For `COc1cc(-c2cncc(C(=O)Nc3ccccc3C)c2)ccc1O`, the inhibition at 10 µM at fes is less than 50%; on Zap70 it was less than 50%; on hck, not below 50%; on human JAK3, less than 50%; on fms, less than 50%; at human JAK2, less than 50%.
